Laboratory results published in patent US20250263408A1 (Uniquest Pty Ltd, priority 2022, published 2025).

How the values were obtained:
Ba/F3-Syk cells = molecular target: T1, Ba/F3-Syk cells (Homo sapiens, UniProt P43405); assay: Ba/F3 Proliferation Assay, Ba/F3-Syk cells (Resazurin); type: cell-based; settings: 48-hour incubation
T1 construct: fused on or other part: Possible but unprinted fusion partner: TEL (ETV6), the usual partner for Ba/F3 lines transformed by Syk; Nothing on a partner is printed
Experimental: (§1) Ba/F3-Syk and Ba/F3-WT (wild type) cells were maintained at ≤1×10^6 cell/mL in RPMI (Life Technologies) with 10% FBS at 37° C. and 5% CO2 for a maximum of four weeks. Ba/F3-WT additionally contained 2 ng/mL mIL-3 (R&D Systems) to induce cellular growth. Cells were counted and dispensed at 5000 cells/well using a Multidrop Liquid Dispenser in a volume of 45 μL into black 384-well TC treated plates (Greiner) and incubated for four hours in complete media (+mIL-3 for Ba/F3-WT). Compounds were serially diluted in 100% DMSO, prior to an intermediate dilution in RPMI media. 5 μL of compound (0.4% final DMSO) was added to the cells, followed by a 48-hour incubation period. 5 μL of Resazurin (60 μM final) was then added and cells were incubated at 37° C. for three hours, before fluorescence (λex530/λem585) was measured using an Ensight Multimode Plate Reader (Perkin Elmer).

[1] = tested on: Ba/F3-WT (wild type) cells; assay: Ba/F3 Proliferation Assay, Ba/F3-WT (wild type) cells with mIL-3 (Resazurin); type: cell-based; settings: Mus musculus, BaF3, 48 h, Ba/F3-WT cells +mIL-3, 48-hour incubation
Experimental: as §1

Row | EC50 (Ba/F3-Syk cells) | EC50 [1] | SMILES
1 | 645 nM | > 10000 nM | Cc1cc(-c2cc3ncccc3c(OC[C@@H]3CNCCO3)n2)c(C)n1C [Compound 2.40, 5-{[(2S)-morpholin-2-yl]methoxy}-7-(1,2,5-trimethyl-1H-pyrrol-3-yl)-1,6-naphthyridine]
2 | 127 nM | 2320 nM | Cn1cc(-c2cc3ncccc3c(OCC3CNCCCO3)n2)cn1 (stereo not shown) [Compound 2.41, 7-(1-methyl-1H-pyrazol-4-yl)-5-[(1,4-oxazepan-2-yl)methoxy]-1,6-naphthyridine]
3 | 48 nM | 3270 nM | CC(C)(C)n1cc(-c2cc3ncccc3c(OCC3CNCCCO3)n2)cn1 (stereo not shown) [Compound 2.47, 7-(1-tert-butyl-1H-pyrazol-4-yl)-5-[(1,4-oxazepan-2-yl)methoxy]-1,6-naphthyridine]
4 | 119 nM | 4060 nM | Cn1ccc(-c2cc3ncccc3c(OCC3CNCCCO3)n2)c1 (stereo not shown) [Compound 2.48, 7-(1-methyl-1H-pyrrol-3-yl)-5-[(1,4-oxazepan-2-yl)methoxy]-1,6-naphthyridine]
5 | 151 nM | 6180 nM | Cn1cc(-c2cc3ncccc3c(OC[C@@H]3CNCCCO3)n2)cn1 [Compound 2.50, 7-(1-methyl-1H-pyrazol-4-yl)-5-{[(2S)-1,4-oxazepan-2-yl]methoxy}-1,6-naphthyridine]
6 | 32.9 nM | 1460 nM | CC(C)n1cc(-c2cc3ncccc3c(OC[C@@H]3CNCC4(CCC4)O3)n2)cn1 [Compound 2.56, 5-{[(6S)-5-oxa-8-azaspiro[3.5]nonan-6-yl]methoxy}-7-[1-(propan-2-yl)-1H-pyrazol-4-yl]-1,6-naphthyridine]
7 | 58.9 nM | 985 nM | CC(C)(C)n1cc(-c2cc3ncccc3c(OC[C@H]3CNCCCO3)n2)cn1 [Compound 2.59, 7-(1-tert-butyl-1H-pyrazol-4-yl)-5-{[(2R)-1,4-oxazepan-2-yl]methoxy}-1,6-naphthyridine]
8 | 9.7 nM | 2610 nM | CC(C)(C)n1ccc(-c2cc3ncccc3c(OC[C@@H]3CNCC4(CC4)O3)n2)c1 [Compound 2.61, 7-(1-tert-butyl-1H-pyrrol-3-yl)-5-{[(5S)-4-oxa-7-azaspiro[2.5]octan-5-yl]methoxy}-1,6-naphthyridine]
9 | 31.4 nM | 1290 nM | CC(C)n1cc(-c2cc3ncccc3c(OC[C@@H]3CNCC4(CC4)O3)n2)cn1 [Compound 2.62, 5-{[(5S)-4-oxa-7-azaspiro[2.5]octan-5-yl]methoxy}-7-[1-(propan-2-yl)-1H-pyrazol-4-yl]-1,6-naphthyridine]
10 | 253 nM | > 10000 nM | C[C@H](Oc1nc(-c2ccn(C)c2)cc2ncccc12)[C@@H]1CNCC(C)(C)O1 [Compound 2.64, 5-[(1S)-1-[(2S)-6,6-dimethylmorpholin-2-yl]ethoxy]-7-(1-methyl-1H-pyrrol-3-yl)-1,6-naphthyridine]
11 | 11.7 nM | 2540 nM | C[C@@H](Oc1nc(-c2ccn(C)c2)cc2ncccc12)[C@@H]1CNCC(C)(C)O1 [Compound 2.65, 5-[(1R)-1-[(2S)-6,6-dimethylmorpholin-2-yl]ethoxy]-7-(1-methyl-1H-pyrrol-3-yl)-1,6-naphthyridine]
12 | 13.9 nM | 4370 nM | C[C@@H](Oc1nc(-c2ccn(C(C)(C)C)c2)cc2ncccc12)[C@@H]1CNCCO1 [Compound 2.68, 7-(1-tert-butyl-1H-pyrrol-3-yl)-5-[(1R)-1-[(2S)-morpholin-2-yl]ethoxy]-1,6-naphthyridine]
13 | 19.1 nM | 1540 nM | CC(C)n1cc(-c2cc3ncccc3c(OC[C@@H]3CNCCCO3)n2)cn1 [Compound 2.70, 5-{[(2S)-1,4-oxazepan-2-yl]methoxy}-7-[1-(propan-2-yl)-1H-pyrazol-4-yl]-1,6-naphthyridine]
14 | 266 nM | 1900 nM | Cn1cc(-c2cc3ncccc3c(OC[C@H]3CN[C@@H]4CCC[C@@H]4O3)n2)cn1 [Compound 2.72, 5-{[(2R,4aR,7aS)-octahydrocyclopenta[b][1,4]oxazin-2-yl]methoxy}-7-(1-methyl-1H-pyrazol-4-yl)-1,6-naphthyridine]
15 | 32.2 nM | 3380 nM | Cn1cc(-c2cc3ncccc3c(OC[C@@H]3CN[C@H]4CCC[C@H]4O3)n2)cn1 [Compound 2.73, 5-{[(2S,4aS,7aR)-octahydrocyclopenta[b][1,4]oxazin-2-yl]methoxy}-7-(1-methyl-1H-pyrazol-4-yl)-1,6-naphthyridine]
16 | 109 nM | 2880 nM | C[C@H]1CNC[C@@H](COc2nc(-c3cnn(C)c3)cc3ncccc23)O1 [Compound 2.74, 7-(1-methyl-1H-pyrazol-4-yl)-5-{[(25,6S)-6-methylmorpholin-2-yl]methoxy}-1,6-naphthyridine]

Row | EC50 (Ba/F3-Syk cells) | EC50 [1] | SMILES
17 | 67.8 nM | 3920 nM | C[C@H]1CNC[C@@H](COc2nc(-c3ccn(C)c3)cc3ncccc23)O1 [Compound 2.75, 7-(1-methyl-1H-pyrrol-3-yl)-5-{[(2,6S)-6-methylmorpholin-2-yl]methoxy}-1,6-naphthyridine]
18 | 42.7 nM | 5320 nM | C[C@@H]1CNC[C@@H](COc2nc(-c3ccn(C)c3)cc3ncccc23)O1 [Compound 2.77, 7-(1-methyl-1H-pyrrol-3-yl)-5-{[(2S,6R)-6-methylmorpholin-2-yl]methoxy}-1,6-naphthyridine]
19 | 147 nM | 4850 nM | O=C1CCn2cc(-c3cc4ncccc4c(OC[C@@H]4CNCCO4)n3)cc21 [Compound 2.78, 6-(5-{[(2S)-morpholin-2-yl]methoxy}-1,6-naphthyridin-7-yl)-2,3-dihydro-1H-pyrrolizin-1-one]
20 | 596 nM | > 10000 nM | Cn1ccc(-c2cc3ncccc3c(OC[C@@H]3CNC(C)(C)CCO3)n2)c1 [Compound 2.79, 5-{[(2S)-5,5-dimethyl-1,4-oxazepan-2-yl]methoxy}-7-(1-methyl-1H-pyrrol-3-yl)-1,6-naphthyridine]
21 | 127 nM | 2270 nM | CC1(C)CNC[C@H](COc2nc(-c3cnn(C(C)(C)C)c3)cc3ncccc23)O1 [Compound 2.82, 7-(1-tert-butyl-1H-pyrazol-4-yl)-5-{[(2R)-6,6-dimethylmorpholin-2-yl]methoxy}-1,6-naphthyridine]
22 | 34.2 nM | 1650 nM | C[C@@H](Oc1nc(-c2cnn(C)c2)cc2ncccc12)[C@@H]1CNCC(C)(C)O1 [Compound 2.83, 5-[(1R)-1-[(2S)-6,6-dimethylmorpholin-2-yl]ethoxy]-7-(1-methyl-1H-pyrazol-4-yl)-1,6-naphthyridine]
23 | 22.3 nM | 2210 nM | CC(C)n1cc(-c2cc3ncccc3c(O[C@H](C)[C@@H]3CNCC(C)(C)O3)n2)cn1 [Compound 2.84, 5-[(1R)-1-[(2S)-6,6-dimethylmorpholin-2-yl]ethoxy]-7-[1-(propan-2-yl)-1H-pyrazol-4-yl]-1,6-naphthyridine]
24 | 2160 nM | > 10000 nM | CC(C)(C)n1cc(-c2cc3ncccc3c(OC[C@@H]3CNCC(F)(F)CO3)n2)cn1 [Compound 2.86, 7-(1-tert-butyl-1H-pyrazol-4-yl)-5-{[(2S)-6,6-difluoro-1,4-oxazepan-2-yl]methoxy}-1,6-naphthyridine]
25 | 11.2 nM | 1100 nM | CC1(C)CNC[C@@H](COc2nc(-c3cnn(C4(C)CCC4)c3)cc3ncccc23)O1 [Compound 2.87, 5-{[(2S)-6,6-dimethylmorpholin-2-yl]methoxy}-7-[1-(1-methylcyclobutyl)-1H-pyrazol-4-yl]-1,6-naphthyridine]
26 | 17.6 nM | 1560 nM | CC1(C)CNC[C@@H](COc2nc(-c3cnn(C4(C)CC4)c3)cc3ncccc23)O1 [Compound 2.88, 5-{[(2S)-6,6-dimethylmorpholin-2-yl]methoxy}-7-[1-(1-methylcyclopropyl)-1H-pyrazol-4-yl]-1,6-naphthyridine]
27 | 21.7 nM | 2730 nM | CC1(C)CNC[C@@H](COc2nc(-c3cnn(C4(C)CCOC4)c3)cc3ncccc23)O1 (stereo partly shown) [Compound 2.89]
28 | 29 nM | 599 nM | CC[C@H]1CNC[C@@H](COc2nc(-c3cnn(C(C)(C)C)c3)cc3ncccc23)O1 [Compound 2.92, 7-(1-tert-butyl-1H-pyrazol-4-yl)-5-{[(2S,6S)-6-ethylmorpholin-2-yl]methoxy}-1,6-naphthyridine]
29 | 27.7 nM | 1240 nM | CC[C@@H]1CNC[C@@H](COc2nc(-c3cnn(C(C)(C)C)c3)cc3ncccc23)O1 [Compound 2.93, 7-(1-tert-butyl-1H-pyrazol-4-yl)-5-{[(2S,6R)-6-ethylmorpholin-2-yl]methoxy}-1,6-naphthyridine]
30 | 20.1 nM | 724 nM | CC(C)n1cc(-c2cc3ncccc3c(OC[C@H]3OCCN[C@H]3C)n2)cn1 [Compound 2.96, 5-{[(2S,3S)-3-methylmorpholin-2-yl]methoxy}-7-[1-(propan-2-yl)-1H-pyrazol-4-yl]-1,6-naphthyridine]
31 | 162 nM | 1950 nM | O=C1CCn2cc(-c3cc(OC[C@@H]4CNCCO4)c4cccnc4c3)cc21 [Compound 3, 6-(5-{[(2S)-morpholin-2-yl]methoxy}quinolin-7-yl)-2,3-dihydro-1H-pyrrolizin-1-one]
32 | 179 nM | 2590 nM | c1cnc2cc(-c3cnn(C4CC4)c3)cc(OC[C@@H]3CNCCO3)c2c1 [Compound 3.3, 7-(1-cyclopropyl-1H-pyrazol-4-yl)-5-{[(2S)-morpholin-2-yl]methoxy} quinoline]
